Experimental data: patent publication US5464617A, “β-lactam compounds” (Hoffmann-La Roche Inc., priority 1994, dated 1995)
pIC50: −log10 of the molar value. Where a name gives a salt, the structure may show the parent alone. Read-outs that look alike come from different tables or passages of the source.

Key:
[1] = tested on: Citrobacter freundii 1982; test: MIC in vitro of a 1:4 combination of ceftriaxone with a compound of formula I (Test D); assay type: cell-based; settings: Table 2; ceftriaxone alone (control)
β-lactamase = β-lactamase (Citrobacter freundii, UniProt P05193); test: Determination of the β-lactamase inhibiting activity (Test C): inhibition of nitrocefin cleavage by isolated β-lactamase; assay type: biochemical, Citrobacter freundii 1982; settings: pH 7.0, 37° C.
Chain of β-lactamase (P05193 21-381): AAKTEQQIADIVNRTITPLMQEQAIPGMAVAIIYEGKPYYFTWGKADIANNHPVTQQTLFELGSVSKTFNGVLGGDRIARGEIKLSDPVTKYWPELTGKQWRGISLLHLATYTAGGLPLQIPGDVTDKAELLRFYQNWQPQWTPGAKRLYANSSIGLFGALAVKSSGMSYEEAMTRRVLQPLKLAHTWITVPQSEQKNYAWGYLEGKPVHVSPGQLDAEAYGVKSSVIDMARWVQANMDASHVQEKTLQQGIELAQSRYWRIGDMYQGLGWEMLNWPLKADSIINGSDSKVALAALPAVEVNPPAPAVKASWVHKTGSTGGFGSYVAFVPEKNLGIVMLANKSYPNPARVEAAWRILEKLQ
Method: Various β-lactamases can be isolated from penicillin- or cephalosporin-resistant bacterial strains such as Klebsiella pneumoniae NCTC 418, Proteus vulgaris 1028, Bacillus licheniformis 749/C, Escherichia coli SNO1, Pseudomonas aeruginosa 18SH and Citrobacter freundii 1203. For this purpose, the corresponding strains are cultivated in Tryptic Soy Broth (Difco) and harvested by centrifugation in the last logarithmic growth phase (when necessary 50-100 mg/l of ampicillin are added to the medium towards the end of the log-phase in order to induce the β-lactamase). The thus-obtained bacterial mass is treated with 20 mM Tris-HCl buffer (pH 7.0); the cells are broken open with a French press while cooling. The mixture is centrifuged (20,000 r/min.) for 20-30 minutes and a clear crude extract is obtained. The purification of the proteins is effected according to the method of Cartwright, S. J. & Waley, S. G. [Biochem. J. 221, 505-512 (1980)] and, for B. lichenformis, Ellerby, L. M. et al. [Biochemistry 29, 5797-5806 (1990)].
The determination of the activity of the isolated β-lactamases can be carried out according to the method of O'Callaghan, C. H. et al. [Antimicr. Ag. Chemother. […] The cleavage of the substrate, which is accompanied by a change in colour, is effected at 37° C. and is followed quantitatively at 482 nm using a spectral photometer. […]

[2] = tested on: Citrobacter freundii 1982; test: MIC in vitro of a 1:4 combination of ceftriaxone with a compound of formula I (Test D); assay type: cell-based; settings: 1:4 combination of ceftriaxone with the compound; for MIC C. freundii 1982 (D): Table 4, test D
Method: The minimum inhibitory concentration in vitro ([…]) of a 1:4 combination of ceftriaxone with a compound of formula I against Citrobacter freundii 1982 was measured and compiled in Table 2 hereinafter.

E. coli 1346 = test: Antibacterial activity of the products per se, serial dilution method in liquid medium (Test E); assay type: cell-based; settings: Table 4; test E, product per se
Source text: The antibacterial activity of the products per se is illustrated on the basis of Table 3 hereinafter, the minimum inhibitory concentration […] in vitro against E. coli 1346 being determined using the serial dilution method in liquid medium: […]

Molecule | MIC C. freundii 1982 (D) [2] | MIC E. coli 1346 (E) (E. coli 1346) | further results
CO/N=C(\C(=O)N[C@@H]1C(=O)N2C(C(=O)O)=C(CSc3nc(=O)c(=O)[nH]n3C)CS[C@H]12)c1csc(N)n1 [Ceftriaxone, ceftriaxone] |  |  | MIC C. freundii 1982 [1]: 128 µg/mL
(1aS,3aR,6bS)-5-(Carbamoyloxymethyl)-2-(4-hydroxyphenylcarbamoyl)-1-oxo-1,1a,2,3,3a,6b-hexahydro-4-oxa-2,6a-diazacyclobut[cd]indene-6-carboxylic acid sodium salt [31(g)] | 16 µg/mL | 0,5 μg/ml | pIC50 (β-lactamase; Table 4, test C, nitrocefin, 15 minutes pre-incubation, read-out: IC 50 (C)): 4.29
(1aS,3aR,6bR)-2-[(R)- and [(S)-1,1-Dioxo-tetrahydrothien-3-ylcarbamoyl]-5-methylsulphonyloxy-1-oxo-1a,2,3,3a,4,6b-hexahydro-1H-2,6a-diazacyclobut[cd]indene-6-carboxylic acid sodium salt [9(g)] |  |  | pIC50 (β-lactamase; Table 1, nitrocefin substrate, 15 minutes pre-incubation of β-lactamase with inhibitor, read-out: IC 50): 7.57; MIC C. freundii 1982 ([2]; Table 2): 0.25 µg/mL
Cc1nnc(SCC2=C(C(=O)O)N3C(=O)[C@@H]4[C@H]3[C@H](C2)CN4C=O)s1 [65(e), (1aS,3aR,6bR)-2-Formyl-5-(5-methyl-1,3,4-thiadiazol-2-ylsulphanylmethyl)-1-oxo-1a,2,3,3a,4,6b-hexahydro-1H-2,6a-diazacyclobut[cd]indene-6-carboxylicacid sodium salt] | 0.5 µg/mL | 1 µg/mL | 
